Data reported in patent US10392630B2, “Plants having increased tolerance to herbicides” (BASF AGRO B.V., priority 2013, dated 2019).
Like-named read-outs stand apart in the source and are kept apart here.

How the values were obtained:
[1] = system: Alopecurus wildtype PPO (ALOMY), PPO herbicide sensitive PPO2, SEQ ID NO 2; assay: PPO enzyme assay, dose-response (fluorescence), wildtype Alopecurus PPO2; assay type: biochemical, Alopecurus myosuroides; conditions: Table 3b; SEQ ID NO 2, WT
[2] = molecular target: Alopecurus mutant PPO (ALOMY), SEQ ID NO 2 with amino acid substitution; assay: PPO enzyme assay, dose-response (fluorescence), mutated Alopecurus PPO2; assay type: biochemical, Alopecurus myosuroides

Compound | IC50 [1] | further results
COC(Oc1ccccc1Oc1cc(-n2c(=O)cc(C(F)(F)F)n(C)c2=O)c(F)cc1Cl)C(=O)OCC1(C)CC1 (stereo not drawn) [(1-methylcyclopropyl)methyl 2-[2-[2-chloro-4-fluoro-5-[3-methyl-2,6-dioxo-4-(trifluoromethyl)pyrimidin-1-yl]phenoxy]phenoxy]-2-methoxy-acetate] | 0.751 nM | –
CCOCCOC(=O)C(OC)Oc1ccccc1Oc1cc(-n2c(=O)cc(C(F)(F)F)n(C)c2=O)c(F)cc1Cl (stereo not drawn) [2-ethoxyethyl 2-[2-[2-chloro-4-fluoro-5-[3-methyl-2,6-dioxo-4-(trifluoromethyl)pyrimidin-1-yl]phenoxy]phenoxy]-2-methoxy-acetate] | 0.816 nM | –
C#CCN1C(=O)C(F)(F)Oc2cc(F)c(N3C(=O)C4=C(CCCC4)C3=O)cc21 [2-(2,2,7-trifluoro-3-oxo-4-prop-2-ynyl-1,4-benzoxazin-6-yl)-4,5,6,7-tetrahydroisoindole-1,3-dione] | 0.243 nM | –
CCOC(=O)COc1ncccc1Oc1cc(-n2c(=O)cc(C(F)(F)F)n(C)c2=O)c(F)cc1Cl [S-3100, ethyl 2-[[3-[2-chloro-4-fluoro-5-[3-methyl-2,6-dioxo-4-(trifluoromethyl)pyrimidin-1-yl]phenoxy]-2-pyridyl]oxy]acetate] | 0.0645 nM | IC50 [2]: 950 nM; IC50 ([2]; listed as S-3101): 0.552 nM; IC50 ([2]; listed as S-3102): 2.37 nM; IC50 ([2]; listed as S-3103): 992 nM; IC50 ([2]; listed as S-3104): 12.1 nM
O=C(O)c1cc(Oc2ccc(C(F)(F)F)cc2Cl)ccc1[N+](=O)[O-] [ACIFLUORFEN, 5-(2-CHLORO-4-TRIFLUOROMETHYL-PHENOXY)-2-NITRO-BENZOIC ACID] | 1140 nM | IC50 [2]: ≥ 10000 nM
CS(=O)(=O)NC(=O)c1cc(Oc2ccc(C(F)(F)F)cc2Cl)ccc1[N+](=O)[O-] [FOMESAFEN] | 90.3 nM | –
CCOc1cc(Oc2ccc(C(F)(F)F)cc2Cl)ccc1[N+](=O)[O-] [OXIFLUORFEN, 2-CHLORO-1-(3-ETHOXY-4-NITROPHENOXY)-4-(TRIFLUOROMETHYL)BENZENE] | 8.24 nM | –
C#CCN1C(=O)COc2cc(F)c(N3C(=O)C4=C(CCCC4)C3=O)cc21 [FLUMIOXAZIN, 2-(7-fluoro-3-oxo-4-prop-2-ynyl-1,4-benzoxazin-6-yl)-4,5,6,7-tetrahydroisoindole-1,3-dione] | 0.144 nM | –
COC(Oc1ccccc1Oc1cc(-n2c(=O)cc(C(F)(F)F)n(C)c2=O)c(F)cc1Cl)C(=O)OCC(F)F (stereo not drawn) [2,2-difluoroethyl 2-[2-[2-chloro-4-fluoro-5-[3-methyl-2,6-dioxo-4-(trifluoromethyl)pyrimidin-1-yl]phenoxy]phenoxy]-2-methoxy-acetate] | 0.335 nM | –
C=CCOC(=O)C(C)(C)OC(=O)c1cc(-n2c(=O)cc(C(F)(F)F)n(C)c2=O)ccc1Cl [BUTAFENACIL] | 0.0131 nM | –
CCOC(=O)/C(Cl)=C/c1cc(N2C(=O)C3=C(CCCC3)C2=O)ccc1Cl [CINIDON-ETHYL, ethyl (Z)-2-chloro-3-[2-chloro-5-(1,3-dioxo-4,5,6,7-tetrahydroisoindol-2-yl)phenyl]prop-2-enoate] | 81.2 nM | –
COC(=O)C(OC)Oc1ccccc1Oc1cc(-n2c(=O)cc(C(F)(F)F)n(C)c2=O)c(F)cc1Cl (stereo not drawn) [methyl 2-[2-[2-chloro-4-fluoro-5-[3-methyl-2,6-dioxo-4-(trifluoromethyl)pyrimidin-1-yl]phenoxy]phenoxy]-2-methoxy-acetate] | 0.194 nM | –
C#CCN1C(=O)C(F)(F)Oc2cc(F)c(-n3c(=O)cc(C(F)(F)F)n(C)c3=O)cc21 [1-methyl-6-(trifluoromethyl)-3-(2,2,7-trifluoro-3-oxo-4-prop-2-ynyl-1,4-benzoxazin-6-yl)pyrimidine-2,4-dione] | 0.189 nM | –
CCOC(=O)C(Cl)Cc1cc(-n2nc(C)n(C(F)F)c2=O)c(F)cc1Cl (stereo not drawn) [CARFENTRAZONE-ETHYL] | 1.47 nM | –
COC(Oc1ccccc1Oc1cc(-n2c(=O)cc(C(F)(F)F)n(C)c2=O)c(F)cc1Cl)C(=O)OCc1ccncc1 (stereo not drawn) [4-pyridylmethyl 2-[2-[2-chloro-4-fluoro-5-[3-methyl-2,6-dioxo-4-(trifluoromethyl)pyrimidin-1-yl]phenoxy]phenoxy]-2-methoxy-acetate] | 0.671 nM | –
COC(Oc1ccccc1Oc1cc(-n2c(=O)cc(C(F)(F)F)n(C)c2=O)c(F)cc1Cl)C(=O)OC1CCCCC1 (stereo not drawn) [cyclohexyl 2-[2-[2-chloro-4-fluoro-5-[3-methyl-2,6-dioxo-4-(trifluoromethyl)pyrimidin-1-yl]phenoxy]phenoxy]-2-methoxy-acetate] | 2.99 nM | –
OXADIARGYL | 1.17 nM | –
CCOC(=O)C(C)OC(=O)c1cc(Oc2ccc(C(F)(F)F)cc2Cl)ccc1[N+](=O)[O-] (stereo not drawn) [LACTOFEN, (2-ethoxy-1-methyl-2-oxo-ethyl) 5-[2-chloro-4-(trifluoromethyl)phenoxy]-2-nitro-benzoate] | 18.7 nM | –
